Measurements from ChEMBL document CHEMBL1201862, “PubChem BioAssay data set” (2004).
“And” between values parts separate entries of the source, which are not always exact repeats. Identical values can stand only once. The source made the active and inactive calls.

Legend:
[1] = cells; conditions: HEK293
[2] = IOSE-T80 ovarian epithelial cell cytotoxicity, dose response, cytotoxicity control for PAX8 inhibitor project, plate reader, dry powder samples (AID 743045); format: functional, cell-based
[3] = cytotoxicity in OV-90 ovarian cancer cells, dose response, PAX8 inhibitor project, cell-based, plate reader, dry powder, SA8 (AID 743149); format: functional
[4] = target: Paired box protein Pax-8 (Homo sapiens, UniProt Q06710); test: inhibitors of PAX8-driven TPO luciferase reporter, dose response, RMG-I cells, cherry-pick (AID 687027); format: functional, cell-based;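 note: luciferase reporter driven by Pax8 target thyroperoxidase promoter measured by SteadyGlo luminescence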
Sequence of Paired box protein Pax-8 (Q06710 whole entry): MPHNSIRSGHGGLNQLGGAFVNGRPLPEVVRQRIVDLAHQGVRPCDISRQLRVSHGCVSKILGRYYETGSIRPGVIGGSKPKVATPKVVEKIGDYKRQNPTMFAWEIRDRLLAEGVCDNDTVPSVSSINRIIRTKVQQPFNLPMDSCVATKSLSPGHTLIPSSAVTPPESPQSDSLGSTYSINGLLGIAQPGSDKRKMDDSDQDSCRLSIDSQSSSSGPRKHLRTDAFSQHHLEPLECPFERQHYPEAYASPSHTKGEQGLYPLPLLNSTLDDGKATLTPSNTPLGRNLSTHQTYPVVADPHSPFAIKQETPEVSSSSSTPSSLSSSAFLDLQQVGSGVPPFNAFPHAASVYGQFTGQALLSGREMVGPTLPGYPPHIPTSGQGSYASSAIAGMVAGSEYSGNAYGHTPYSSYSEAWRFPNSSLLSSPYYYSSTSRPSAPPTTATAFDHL

[5] = cytotoxicity dependent on PAX8, dose response, cell-based, plate reader, dry powder (AID 743049); format: functional
[6] = cytotoxicity in COV434 cells, dose response, cytotoxicity control for PAX8 inhibitor project, cell-based, plate reader, dry powder, SA7 (AID 743145); format: functional
[7] = system: H4; test: Luminescence Cell-Based Dose Response HTS to Identify Activators of 5'UTR Stem-Loop Driven Prion Protein mRNA Translation in H4 Neuroglioblastoma Cells. [Related pubchem assays: 1829 (Project Summary), 1814 (Primary HTS)]; format: functional; conditions: Homo sapiens
[8] = Luminescence Cell-Based Dose Response HTS to Identify Activators of Luciferase Translation or Activity in H4-C Neuroglioblastoma Cells. [Related pubchem assays: 1829 (Project Summary), 1814 (Primary HTS)]; format: functional
[9] = Luminescence Cell-Based Dose Response HTS to Identify Activators of Luciferase Translation or Activity in H4 […] Cells. [Related pubchem assays: 1829 (Project Summary), 1814 (Primary HTS)]; format: functional
[10] = Luminescence Cell-Based Dose Confirmation HTS to Identify Activators of 5'UTR Stem-Loop Driven Alpha-Synuclein mRNA Translation in H4 Neuroglioblastoma Cells. [Related pubchem assays: 1829 (Project Summary), 1814 (Primary HTS)]; format: functional
[11] = HepG2 cell cytotoxicity, dose response, cytotoxicity control, cherry-picks, set 5 (AID 1053118); format: functional, cell-based
[12] = Luminescence Cell-Based Dose Retest to Confirm Activators of 5'UTR Stem-Loop Driven Alpha-Synuclein mRNA Translation in H4 Neuroglioblastoma Cells. [Related pubchem assays (depositor defined):AID1813, AID1829]; format: functional
[13] = Luminescence Cell-Based Dose Response HTS to Identify Activators of 5'UTR Stem-Loop Driven Prion Protein mRNA Translation in H4-C Neuroglioblastoma Cells. [Related pubchem assays: 1829 (Project Summary), 1814 (Primary HTS)]; format: functional
[14] = target: Albumin (Bos taurus, UniProt P02769); test: Counterscreen for inhibitors of T-cell receptor (TCR)-CD3 interaction: Fluorescence-based biochemical high throughput dose response assay to identify inhibitors of T-cell receptor (TCR)-CD3 interaction using a TAMRA-labeled BSA probe.; format: functional
Sequence of Albumin (P02769 whole entry): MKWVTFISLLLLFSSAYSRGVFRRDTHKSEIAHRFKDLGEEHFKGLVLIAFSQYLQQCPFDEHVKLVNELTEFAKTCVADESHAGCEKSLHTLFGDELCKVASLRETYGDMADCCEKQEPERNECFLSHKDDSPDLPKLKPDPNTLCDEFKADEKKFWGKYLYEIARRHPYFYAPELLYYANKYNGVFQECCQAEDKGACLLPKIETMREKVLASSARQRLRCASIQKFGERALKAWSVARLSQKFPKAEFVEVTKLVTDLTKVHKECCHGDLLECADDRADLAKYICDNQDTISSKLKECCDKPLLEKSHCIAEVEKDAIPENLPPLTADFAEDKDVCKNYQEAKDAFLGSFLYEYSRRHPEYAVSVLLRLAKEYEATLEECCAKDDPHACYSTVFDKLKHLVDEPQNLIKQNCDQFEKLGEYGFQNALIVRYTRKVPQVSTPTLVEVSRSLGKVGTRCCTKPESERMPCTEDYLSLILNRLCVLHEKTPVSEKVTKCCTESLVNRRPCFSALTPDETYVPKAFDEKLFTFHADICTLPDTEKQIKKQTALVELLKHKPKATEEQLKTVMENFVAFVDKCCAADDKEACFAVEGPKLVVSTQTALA

[15] = HEK293 Cytotoxicity Assay Measured in Cell-Based System Using Plate Reader - 7071-01_Inhibitor_Dose_CherryPick_Activity_Set2.; format: functional
[16] = system: HEK293; test: HEK293T cell cytotoxicity, dose response, cytotoxicity control, ATP luminescence, cherry-pick samples (AID 687005); format: functional, cell-based; conditions: Homo sapiens;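 note: cells exposed to compound for 48 hours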
[17] = target: 1-phosphatidylinositol 4,5-bisphosphate phosphodiesterase gamma-1 (Homo sapiens, UniProt P19174); test: Counterscreen for inhibitors of phospholipase C isozymes (PLC-B3): Fluorescence-based biochemical high throughput dose response assay to identify inhibitors of phospholipase C isozymes (PLC-gamma1).
Sequence of 1-phosphatidylinositol 4,5-bisphosphate phosphodiesterase gamma-1 (P19174 whole entry): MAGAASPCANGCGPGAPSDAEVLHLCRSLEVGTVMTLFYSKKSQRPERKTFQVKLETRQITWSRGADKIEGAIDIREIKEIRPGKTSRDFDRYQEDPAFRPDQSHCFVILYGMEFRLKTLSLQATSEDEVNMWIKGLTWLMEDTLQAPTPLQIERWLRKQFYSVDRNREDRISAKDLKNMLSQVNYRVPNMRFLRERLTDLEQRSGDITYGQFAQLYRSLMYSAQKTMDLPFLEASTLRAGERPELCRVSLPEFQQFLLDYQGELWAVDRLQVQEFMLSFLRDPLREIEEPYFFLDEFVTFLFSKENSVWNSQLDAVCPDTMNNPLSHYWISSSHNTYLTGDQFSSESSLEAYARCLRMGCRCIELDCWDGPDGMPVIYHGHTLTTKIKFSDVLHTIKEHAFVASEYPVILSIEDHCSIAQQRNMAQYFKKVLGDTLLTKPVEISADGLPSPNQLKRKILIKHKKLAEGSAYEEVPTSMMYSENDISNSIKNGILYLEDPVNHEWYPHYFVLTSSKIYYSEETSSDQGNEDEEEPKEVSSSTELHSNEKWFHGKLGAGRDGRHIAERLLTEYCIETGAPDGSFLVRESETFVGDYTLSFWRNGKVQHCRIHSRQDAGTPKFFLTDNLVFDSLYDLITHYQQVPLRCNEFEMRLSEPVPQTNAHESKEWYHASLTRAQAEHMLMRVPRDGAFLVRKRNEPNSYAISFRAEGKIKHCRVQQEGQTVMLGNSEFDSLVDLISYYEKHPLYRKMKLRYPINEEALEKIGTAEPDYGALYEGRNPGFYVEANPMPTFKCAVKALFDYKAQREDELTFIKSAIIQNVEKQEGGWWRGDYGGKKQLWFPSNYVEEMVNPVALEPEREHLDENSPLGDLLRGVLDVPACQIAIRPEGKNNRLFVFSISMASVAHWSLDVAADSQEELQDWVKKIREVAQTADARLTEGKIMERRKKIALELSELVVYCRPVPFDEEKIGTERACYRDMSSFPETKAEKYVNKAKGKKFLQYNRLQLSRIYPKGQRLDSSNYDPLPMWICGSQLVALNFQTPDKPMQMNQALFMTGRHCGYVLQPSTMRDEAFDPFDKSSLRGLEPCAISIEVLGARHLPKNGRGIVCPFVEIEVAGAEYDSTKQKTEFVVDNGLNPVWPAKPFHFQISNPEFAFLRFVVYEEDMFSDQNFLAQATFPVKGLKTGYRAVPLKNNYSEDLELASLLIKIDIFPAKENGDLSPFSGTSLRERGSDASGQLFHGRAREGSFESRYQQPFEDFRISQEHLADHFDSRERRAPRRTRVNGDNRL

[18] = target: 1-phosphatidylinositol 4,5-bisphosphate phosphodiesterase beta-3 (Homo sapiens, UniProt Q01970); test: Fluorescence-based biochemical high throughput dose response assay to identify inhibitors of phospholipase C isozymes (PLC-B3).
Sequence of 1-phosphatidylinositol 4,5-bisphosphate phosphodiesterase beta-3 (Q01970 whole entry): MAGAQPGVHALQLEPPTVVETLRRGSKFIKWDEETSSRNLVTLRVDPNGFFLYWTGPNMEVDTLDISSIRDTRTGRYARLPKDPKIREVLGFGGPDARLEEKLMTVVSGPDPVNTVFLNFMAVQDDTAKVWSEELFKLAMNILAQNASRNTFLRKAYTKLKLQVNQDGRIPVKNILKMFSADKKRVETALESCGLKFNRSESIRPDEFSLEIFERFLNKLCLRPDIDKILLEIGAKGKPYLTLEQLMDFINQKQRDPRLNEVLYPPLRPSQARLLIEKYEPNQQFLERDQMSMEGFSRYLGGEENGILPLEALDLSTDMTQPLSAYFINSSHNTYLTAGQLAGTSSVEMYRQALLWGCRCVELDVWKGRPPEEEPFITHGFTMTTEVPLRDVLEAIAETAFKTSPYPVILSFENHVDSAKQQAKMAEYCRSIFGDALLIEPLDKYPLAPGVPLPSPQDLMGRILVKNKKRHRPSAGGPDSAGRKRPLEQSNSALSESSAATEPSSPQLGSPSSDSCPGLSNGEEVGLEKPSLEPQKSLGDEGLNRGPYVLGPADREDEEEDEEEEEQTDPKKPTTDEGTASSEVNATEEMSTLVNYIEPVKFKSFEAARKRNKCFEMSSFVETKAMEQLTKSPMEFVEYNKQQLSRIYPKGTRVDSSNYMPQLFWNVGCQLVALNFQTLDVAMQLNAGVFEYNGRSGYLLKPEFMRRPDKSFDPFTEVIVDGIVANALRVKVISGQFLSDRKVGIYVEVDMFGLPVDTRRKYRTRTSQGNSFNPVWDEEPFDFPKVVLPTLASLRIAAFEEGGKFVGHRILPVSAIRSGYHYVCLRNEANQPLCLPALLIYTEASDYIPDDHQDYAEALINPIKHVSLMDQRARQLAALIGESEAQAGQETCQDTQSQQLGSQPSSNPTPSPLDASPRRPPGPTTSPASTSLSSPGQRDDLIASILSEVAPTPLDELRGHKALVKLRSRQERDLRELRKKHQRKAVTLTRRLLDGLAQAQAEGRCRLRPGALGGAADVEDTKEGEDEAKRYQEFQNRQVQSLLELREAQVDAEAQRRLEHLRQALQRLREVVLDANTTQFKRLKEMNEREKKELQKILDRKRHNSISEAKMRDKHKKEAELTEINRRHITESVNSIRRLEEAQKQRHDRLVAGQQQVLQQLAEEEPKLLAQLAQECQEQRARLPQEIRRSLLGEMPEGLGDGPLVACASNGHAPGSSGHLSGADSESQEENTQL

[19] = target: Kallikrein-7 (Homo sapiens, UniProt P49862); test: Fluorescence Intensity-based biochemical primary high throughput dose response assay to identify activators of kallikrein-7 (K7) zymogen.
[20] = EDANS-DABCYL fluorescence interference, concentration series, dose response, artefact control for kallikrein-7 zymogen activator project, biochemical, fluorescence intensity, triplicate (AID 720493)
[21] = Late stage assay provider results from the probe development effort to identify selective inhibitors of heat shock protein 90 (HSP90): Absorbance-based cell proliferation assay in SKBR3 cells.; format: functional; conditions: SK-BR-3
[22] = Late stage assay provider results from the probe development effort to identify selective inhibitors of heat shock protein 90 (HSP90): Absorbance-based cell proliferation assay in MCF7 cells.; format: functional
[23] = target: Heat shock protein HSP 90-alpha (Homo sapiens, UniProt P07900); test: Luminescence-based dose response biochemical high throughput screening assay for inhibitors of the Heat Shock Protein 90 (HSP90). [Related pubchem assays: 1831 (Summary AID.), 1846 (Confirmation screen.), 1789 (Primary screen.)]
[24] = system: Vero; test: cells; format: functional; conditions: Chlorocebus sabaeus
[25] = system: HEK293; test: cells; conditions: Homo sapiens
[26] = system: HEK293; test: cells; conditions: Homo sapiens; remark: listed apart in the source
[27] = target: Galanin receptor type 3 (Homo sapiens, UniProt O60755); test: Fluorescence-based cell-based primary high throughput dose response assay to identify antagonists of the Galanin Receptor 3 (GalR3).; format: functional
[28] = cells; format: functional, cell-based; conditions: HEK-CNG
[29] = PAX5 activity inhibitors, dose response, selectivity assay for PAX8 inhibitor project, cell-based, plate reader, dry powder samples (AID 743047); format: functional;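 note: HEK293 cells carrying a Pax5 driven CD19 promoter luciferase reporter; potency of inhibitors that lower reporter luminescence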
[30] = target: Scavenger receptor class B member 1 (Mus musculus, UniProt Q61009); test: inhibitors of SR-BI-mediated HDL uptake, dose response, cell-based, ldlA[mSR-BI] CHO, DiI fluorescence, dry powder, set 10 (AID 624029); format: functional
Sequence of Scavenger receptor class B member 1 (Q61009 whole entry): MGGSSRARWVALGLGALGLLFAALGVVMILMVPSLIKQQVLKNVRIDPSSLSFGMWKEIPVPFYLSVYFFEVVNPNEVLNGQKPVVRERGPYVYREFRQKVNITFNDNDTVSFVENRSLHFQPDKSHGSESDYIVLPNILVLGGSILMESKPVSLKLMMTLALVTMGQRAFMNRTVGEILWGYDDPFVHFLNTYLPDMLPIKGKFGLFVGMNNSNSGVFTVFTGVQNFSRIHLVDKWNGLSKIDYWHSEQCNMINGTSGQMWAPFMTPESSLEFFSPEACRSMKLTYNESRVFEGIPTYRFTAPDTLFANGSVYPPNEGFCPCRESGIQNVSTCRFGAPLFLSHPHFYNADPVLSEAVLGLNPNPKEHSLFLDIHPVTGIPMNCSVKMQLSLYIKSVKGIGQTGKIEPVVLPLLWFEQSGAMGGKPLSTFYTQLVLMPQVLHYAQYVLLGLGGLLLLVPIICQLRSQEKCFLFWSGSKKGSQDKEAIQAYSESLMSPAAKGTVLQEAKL

[31] = system: HeLa; test: HeLa cell cytotoxicity, dose response, cytotoxicity control, ATP luminescence, cherry-pick samples (AID 687004); format: functional, cell-based; conditions: Homo sapiens
[32] = IGROV1 ovarian cancer cell cytotoxicity, dose response, PAX8 inhibitor project, plate reader, dry powder samples (AID 743043); format: functional, cell-based; conditions: IGROV-1
[33] = HEK293 cell cytotoxicity, dose response, cytotoxicity control, cherry-picks, set 5 (AID 1053117); format: functional, cell-based
[34] = A549 cell cytotoxicity, dose response, cytotoxicity control, cherry-picks, 26 µM top dose (AID 1053119); format: functional, cell-based
[35] = LMP1-driven NF-kB reporter inhibition, dose response, cell-based, luciferase reporter, luminescence, dry powder, set 2 (AID 624376); format: functional
[36] = cytotoxicity in OVCAR8 ovarian cancer cells, dose response, PAX8 project, cell-based, plate reader, dry powder samples (AID 743197); format: functional; conditions: OVCAR-8
[37] = NIH:OVCAR-3 ovarian cancer cell cytotoxicity, dose response, PAX8 inhibitor project, plate reader, dry powder samples (AID 743044); format: functional, cell-based
[38] = inhibitors of CMV-promoter luciferase reporter, dose response, counter-screen for Pax8 inhibitor project, cell-based, HEK293, luminescence, dry powder (AID 743020); format: functional
[39] = CTGF mRNA reduction under YAP1 overexpression, dose response, mechanism study for YAP1 pathway inhibitor project, DLD1 cells, RT-qPCR, cherry-pick (AID 1053127); format: functional, cell-based; conditions: DLD-1
[40] = inhibitors of PGC1a acetylation in cells, dose response, cell-based, cherry-picked samples (AID 720514); format: functional;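 note: potency may reflect raised or lowered acetylation signal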
[41] = HEK293 cell cytotoxicity, dose response, cytotoxicity control, ATP luminescence, dry powder, Set6 (AID 743142); format: functional, cell-based
[42] = HepG2 cell cytotoxicity, dose response, cytotoxicity control, luminescence plate reader, powder samples, set 2 (AID 651860); format: functional, cell-based
[43] = target: COUP transcription factor 2 (Homo sapiens, UniProt P24468); test: Luminescence-based cell-based high throughput dose response assay to identify inhibitors of COUP-TFII (NR2F2).; format: functional;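 note: HEK293 cells transiently cotransfected with COUP-TFII expression vector and reporter; luciferase reporter luminescence driven by COUP-TFII from the pX2-168 reporter plasmid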
Sequence of COUP transcription factor 2 (P24468 whole entry): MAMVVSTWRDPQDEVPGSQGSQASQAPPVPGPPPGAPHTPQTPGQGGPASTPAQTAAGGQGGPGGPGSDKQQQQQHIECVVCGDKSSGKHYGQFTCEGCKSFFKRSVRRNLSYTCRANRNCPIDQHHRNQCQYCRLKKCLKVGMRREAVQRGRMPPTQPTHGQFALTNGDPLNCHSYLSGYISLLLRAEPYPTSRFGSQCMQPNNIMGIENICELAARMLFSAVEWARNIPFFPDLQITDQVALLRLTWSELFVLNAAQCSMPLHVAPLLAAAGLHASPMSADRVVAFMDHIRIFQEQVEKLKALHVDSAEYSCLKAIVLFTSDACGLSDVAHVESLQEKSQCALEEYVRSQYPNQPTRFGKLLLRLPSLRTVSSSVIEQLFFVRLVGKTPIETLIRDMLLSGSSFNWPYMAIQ

[44] = NIH/3T3 fibroblast cytotoxicity, dose response, cytotoxicity control, cell-based, plate reader, dry powder, set 2 (AID 652280); format: functional; conditions: NIH3T3
[45] = T. cruzi growth inhibition in host cells, dose response, cell-based, plate reader, dry powder, set 2 (AID 652275); format: functional
[46] = target: NAD-dependent protein deacylase sirtuin-5, mitochondrial (Homo sapiens, UniProt Q9NXA8); test: SIRT5 desuccinylase inhibitors, dose response, biochemical, fluorescence imaging, cherry-pick, set 5 (AID 720591);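 note: desuccinylation of succinyl peptide AMC substrate read as fluorescence after trypsin release; potency of inhibitors that lower fluorescence and may act on trypsin instead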
Sequence of NAD-dependent protein deacylase sirtuin-5, mitochondrial (Q9NXA8 whole entry): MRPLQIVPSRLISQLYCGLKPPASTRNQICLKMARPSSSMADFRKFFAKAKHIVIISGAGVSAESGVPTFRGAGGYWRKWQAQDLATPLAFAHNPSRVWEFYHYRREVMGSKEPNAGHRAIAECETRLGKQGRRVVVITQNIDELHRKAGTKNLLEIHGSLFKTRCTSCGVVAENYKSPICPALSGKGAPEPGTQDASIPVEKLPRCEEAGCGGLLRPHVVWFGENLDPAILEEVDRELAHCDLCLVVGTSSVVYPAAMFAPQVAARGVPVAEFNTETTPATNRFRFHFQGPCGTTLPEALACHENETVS

## CC(C)CCN(CCC(C)C)CC(O)Cn1c2ccccc2c(=O)c2ccccc21 (configuration not stated)
[1]
  AC50: > 52 µM (inactive)

## CC1(C)CC(=O)c2sc(NC(=O)CCS(=O)(=O)c3ccccc3)nc2C1
[2]
  AC50: 69.9 µM (active)
[3]
  AC50: 86.7 µM (active)
[4]
  AC50: 3.16 µM (active)
[5]
  AC50: 11.9 µM (active)
[6]
  AC50: 22.9 µM (active)

## O=c1c2cc(N3CCOCC3)ccc2[nH]c(=S)n1Cc1ccc(Cl)cc1
[7]
  EC50: 5.33 µM (active)
[8]
  EC50: 2.96 µM (active)
[9]
  EC50: 66.7 µM (active)
[10]
  EC50: 5.35 µM (active)
[11]
  AC50: > 52 µM (inactive)
[12]
  EC50: 0.719 µM (active)
[13]
  EC50: 4.66 µM (active)

## O=C(NNC(=O)c1cc2ccccc2cc1O)Nc1ccc(F)cc1F
[14]
  IC50: > 94.1 µM (inactive)

## CC(C)N1C(=O)C2(OCCCO2)c2cc(Br)ccc21
[15]
  AC50: 13 µM (active)
[16]
  AC50: 13 µM (active)

## O=S(=O)(c1ccccc1)c1cnn(-c2ccccc2)c1-c1ccc(Cl)cc1
[17]
  IC50: > 122 µM (inactive)
[18]
  IC50: > 122 µM (inactive)

## Cc1ccc(C(=O)Nc2ccc(NC(=O)c3ccc(C)o3)cc2)o1
[19]
  EC50: 12.7 µM (inactive)
[20]
  EC50: > 7.72 µM (active)

## Cc1cc(NC(=O)c2coc(=O)c(Br)c2)ccc1C(C)C
[21]
  IC50: 18.8 µM (inactive)
[22]
  IC50: 8.9 µM (active)
[23]
  IC50: 0.685 µM (active)
[24]
  CC50: > 25 µM (active)

## CCc1nc2sc(C#N)c(N)c2c2c1CCCC2
[25]
  EC50: > 59.6 µM (inactive)
[26]
  EC50: > 59.6 µM (inactive)
[27]
  IC50: > 3.32 µM (active)
[28]
  EC50: > 29.9 µM (inactive)

## N#C[C@@H]1[C@@H](c2ccc(-c3cccc(F)c3)cc2)[C@H](CO)N1C(=O)NC1CCCC1
[3]
  AC50: > 70 µM (inactive)
[29]
  AC50: 55.5 µM (active)
[4]
  AC50: 22.2 µM (active)
[5]
  AC50: 39.6 µM (active)
[6]
  AC50: 65.3 µM (active)

## CC(C)NC(=O)Nc1ccc2c(c1)C(=O)N([C@H](C)CO)C[C@@H](C)[C@@H](CN(C)S(=O)(=O)c1ccc(Cl)cc1)O2
[30]
  AC50: 39.9 µM (active)

## C[C@@H]1CN([C@@H](C)CO)C(=O)Cc2cc(NC(=O)Nc3cccc4ccccc34)ccc2O[C@@H]1CN(C)S(=O)(=O)c1cccs1
[31]
  AC50: 32.3 µM (active)

## O=C(C[C@@H]1CC[C@@H]2[C@H](COC[C@@H](O)CN2C(=O)Nc2ccc(C(F)(F)F)cc2)O1)NC1Cc2ccccc2C1
[4]
  AC50: 5.62 µM (active)
[32]
  AC50: 56.8 µM (active)

## CC(C)(C)[S@@+]([O-])N1Cc2cc(C(=O)NCc3ccccc3F)nc(-c3cccc(-c4ccncc4)c3)c2[C@H]1CCO
[33]
  AC50: > 52 µM (inactive)
[34]
  AC50: 32.2 µM (active)
[35]
  AbsAC35: 50.48 µM

## C[C@@H]1CN([C@H](C)CO)C(=O)c2cc(NC(=O)Nc3ccc(F)cc3)ccc2O[C@@H](C)CCCCO[C@@H]1CN(C)Cc1ccc(C(F)(F)F)cc1
[4]
  AC50: 5.91 µM (active)
[36]
  AC50: 39.5 µM (active)
[37]
  AC50: 12.4 µM (active)
[38]
  AC50: 40.6 µM (active)

## O=C(Cc1ccncc1)N1CCCCN2[C@H](CO)[C@@H](c3ccc(C#Cc4ccccc4F)cc3)[C@@H]2C1
[39]
  AC50: 24.8 µM (active)

## O=C1CN(S(=O)(=O)Cc2ccccc2)C[C@@H]2[C@@H](c3ccc(C#Cc4cccc(F)c4)cc3)[C@@H](CO)N12
[40]
  AC50: 21.6 µM (active)

## O=C(CCNC(=O)c1ccc(F)cc1)N[C@@H]1CCCc2ccccc21
[41]
  AC50: 16.5 µM (active)

## O=C(O)C1CCCCC1C(=O)Nc1ccccc1CN1C(=O)c2ccccc2C1=O (configuration not stated)
[42]
  AC50: > 52 µM (inactive)

## Cc1cc(C)c(O)c(C(=O)CC2CC(=O)NC(=O)C2)c1
[43]
  IC50: 9.88 µM (active)

## CC(C)N1C[C@@H](C)[C@H](CN(C)Cc2ccc(Oc3ccccc3)cc2)Oc2c(C(=O)Nc3ccncc3)cccc2C1=O
[44]
  AC50: 6.05 µM (active)
[45]
  AC50: 40.5 nM (active) and 71.6 nM (active)

## C[C@@H]1CN([C@@H](C)CO)C(=O)c2cc(Br)cnc2O[C@H]1CN(C)Cc1cccnc1
[46]
  AC50: > 30 µM (inactive)
